According to US20060018864A1, “Cosmetic preparation containing glycerylamino acid derivative” (priority 2002, published 2006):
Like-named read-outs stand apart in the source and are kept apart here.

Tests used:
[1] = tested on: skin (forearm of panelists); experiment: Moisturizing effect on skin: skin conductance (SKICON200-EX) on forearm of panelists; format: in vivo, human; details: for change in vivo at 5 %: Homo sapiens, topical, 20 min, read-out: Moisturizing effect on skin
Experimental: Evaluation was carried out in a manner that forearm of panelists was washed and then applied with 100 μl of aqueous amino acid N-glyceryl derivative solution prepared in 5% concentration. Then, conductance value of the skin was measured by SKICON200-EX (manufactured by IBS K. K.) before the application and in 20 minutes elapsed after the application.
Moisturizing effect on skin was evaluated by the following criteria.
Moisturizing effect on skin rating criteria • ◯: Conductance changing ratio is 10% more • □: Conductance changing ratio is 3% or more and less than 10% • X: Conductance changing ratio is less than 3.

[2] = Moisturizing effect measurement employing keratin powder (ground wool); format: physicochemical; details: (B/A)×100: water retained after further 6 hours at 20° C., 20.0% relative humidity, relative to water absorbed at 79.2% relative humidity for 48 hours
Experimental: For the constant-humidity bath under 20.0% of relative humidity, saturated aqueous potassium acetate solution was employed.
Moisturizing effect was evaluated by the following criteria,
Moisturizing effect rating criteria • ⊚: 60 or more • ◯: 50 or more and less than 60 • Δ: 40 or more and less than 50 • X: Less than 40

[3] = Stability evaluation: odor of sample solution after storage at 50° C. for 1 month; details: for Stability: 5% by weight sample solution, sealed, 50° C., 1 month, odor, average of 5 panelists (3: no degradation odor, 1: strong degradation odor); for Formation of homogeneous solution of sample: 5% by weight sample solution for stability evaluation
Text: [Method of Stability Evaluation]
After 1 month being elapsed, the sealing was opened, followed by odor of samples being evaluated by 5 panelists according to the following criteria.
Odor rating criteria • 3: No degradation odor • 2: Almost no degradation odor • 1: Strong degradation odor
Odor evaluation value of each sample was the average of values determined by 5 panelists; the evaluation result was represented by the following marks rated according to respective criteria. • ∘: 2.4 or more and less than 3 • □: 1.8 or more and less than 2.4 • X: Less than 1.8

[4] = Moisture-absorption ability measurement employing keratin powder (ground wool); format: physicochemical; details: keratin powder with sample, 20° C., 79.2% relative humidity, 48 hours; absorbed water per 1 g of keratin powder
Experimental: [Method of Moisture-Absorption Ability Measurement Carried Out by Employing Keratin Powder (Ground Wool)]
Moisture-absorption ability was evaluated by the following criteria.
Moisture-absorption ability rating criteria • ⊚: Amount of absorbed water per 1 g of keratin powder is 0.60 g or more. • ◯: Amount of absorbed water per 1 g of keratin powder is 0.50 g or more and less than 0.60 g • Δ: Amount of absorbed water per 1 g of keratin powder is 0.40 g or more and less than 0.50 g • X: Amount of absorbed water per 1 g of keratin powder is less than 0.40 g [Method of Moisturizing Effect Measurement Carried Out by Employing Keratin Powder (Ground Wool)]

[5] = 100 μl of 5% aqueous solution on washed forearm, ten panelists, conductance changing ratio before vs 20 minutes after application

1 sodium N-glycerylaspartate [Glyceryl derivative of aspartic acid]
Moisturizing effect on skin [1, 5]: ⊚

CC(O)CCO (stereo not drawn) [1,3-Butylene glycol]
Moisturizing effect on skin [1, 5]: Δ
Moisturizing effect [2]: Δ (40 or more and less than 50)
Stability [3]: Δ
Moisture-absorption ability [4]: Δ (Amount of absorbed water per 1 g of keratin powder is 0.40 g or more and less than 0.50 g)

C[C@H](N)C(=O)O [Alanine]
Stability [3]: X (Less than 1.8)

Cl.N=C(N)NCCC[C@H](N)C(=O)O [Arginine hydrochloride]
change in vivo at 5 % [1]: > 10%
Moisturizing effect [2]: ◯ (50 or more and less than 60)
Stability [3]: ◯
Moisture-absorption ability [4]: ◯ (Amount of absorbed water per 1 g of keratin powder is 0.50 g or more and less than 0.60 g)

OCC(O)CO [Glycerin]
Moisturizing effect [2]: ◯ (50 or more and less than 60)
Stability [3]: ◯
Moisture-absorption ability [4]: ◯ (Amount of absorbed water per 1 g of keratin powder is 0.50 g or more and less than 0.60 g)

C[C@H](NCC(O)CO)C(=O)O (stereo partly drawn) [Glyceryl derivative of alanine, N-glycerylalanine]
change in vivo at 5 % [1, 5]: > 10%
Moisturizing effect [2]: ◯ (50 or more and less than 60)
Stability [3]: Δ
Moisture-absorption ability [4]: ⊚ (Amount of absorbed water per 1 g of keratin powder is 0.60 g or more)

Cl.N=C(N)NCCC[C@H](NCC(O)CO)C(=O)O (stereo partly drawn) [Glyceryl derivative of arginine, N-glycerylarginine hydrochloride]
Moisturizing effect on skin [1, 5]: ⊚
Moisturizing effect [2]: ⊚ (60 or more)
Stability [3]: ⊚
Moisture-absorption ability [4]: ⊚ (Amount of absorbed water per 1 g of keratin powder is 0.60 g or more)

O=C([O-])CC[C@H](NCC(O)CO)C(=O)[O-].[Na+].[Na+] (stereo partly drawn) [Glyceryl derivative of glutamic acid, sodium N-glycerylglutamate]
Moisturizing effect on skin [1, 5]: ⊚
Moisturizing effect [2]: ⊚ (60 or more)
Stability [3]: ◯
Moisture-absorption ability [4]: ⊚ (Amount of absorbed water per 1 g of keratin powder is 0.60 g or more)

O=C(O)CNCC(O)CO (stereo not drawn) [Glyceryl derivative of glycine, N-glycerylglycine]
change in vivo at 5 % [1, 5]: > 10%
Moisturizing effect [2]: ⊚ (60 or more)
Stability [3]: Δ
Moisture-absorption ability [4]: ⊚ (Amount of absorbed water per 1 g of keratin powder is 0.60 g or more)

Cl.O=C(O)[C@H](Cc1c[nH]cn1)NCC(O)CO (stereo partly drawn) [Glyceryl derivative of histidine, M-glycerylhistidine hydrochloride]
Moisturizing effect on skin [1, 5]: ⊚
Moisturizing effect [2]: ⊚ (60 or more)
Moisture-absorption ability [4]: ⊚ (Amount of absorbed water per 1 g of keratin powder is 0.60 g or more)

CC(C)C[C@H](NCC(O)CO)C(=O)O (stereo partly drawn) [Glyceryl derivative of leucine, N-glycervylleucine]
Moisturizing effect on skin [1, 5]: ◯ (Conductance changing ratio is 10% more)
Moisturizing effect [2]: ◯ (50 or more and less than 60)
Moisture-absorption ability [4]: ⊚ (Amount of absorbed water per 1 g of keratin powder is 0.60 g or more)

Cl.NCCCC[C@H](NCC(O)CO)C(=O)O (stereo partly drawn) [Glyceryl derivative of lysine, N-glyceryllysine hydrochloride]
Moisturizing effect on skin [1, 5]: ⊚
Moisturizing effect [2]: ⊚ (60 or more)
Stability [3]: Δ
Moisture-absorption ability [4]: ⊚ (Amount of absorbed water per 1 g of keratin powder is 0.60 g or more)

O=C(O)[C@H](Cc1ccccc1)NCC(O)CO (stereo partly drawn) [Glyceryl derivative of phenylalanine, N-glycerylphenylalanine]
change in vivo at 5 % [1, 5]: > 10%
Moisturizing effect [2]: ◯ (50 or more and less than 60)
Stability [3]: ◯
Moisture-absorption ability [4]: ⊚ (Amount of absorbed water per 1 g of keratin powder is 0.60 g or more)

O=C(O)[C@@H]1CCCN1CC(O)CO (stereo partly drawn) [Glyceryl derivative of proline, N-glycerylproline]
change in vivo at 5 % [1, 5]: > 10%
Moisturizing effect [2]: ⊚ (60 or more)
Stability [3]: Δ
Moisture-absorption ability [4]: ⊚ (Amount of absorbed water per 1 g of keratin powder is 0.60 g or more)

CN(CC(=O)O)CC(O)CO (stereo not drawn) [Glyceryl derivative of sarcosine, N-glyaerylsarcosine]
Moisturizing effect on skin [1, 5]: ◯ (Conductance changing ratio is 10% more)
Moisturizing effect [2]: ⊚ (60 or more)
Moisture-absorption ability [4]: ⊚ (Amount of absorbed water per 1 g of keratin powder is 0.60 g or more)

O=C(O)[C@H](CO)NCC(O)CO (stereo partly drawn) [Glyceryl derivative of serine, N-glycerylserine]
change in vivo at 5 % [1, 5]: > 10%
Moisturizing effect [2]: ⊚ (60 or more)
Stability [3]: ◯
Moisture-absorption ability [4]: ⊚ (Amount of absorbed water per 1 g of keratin powder is 0.60 g or more)

NCC(=O)O [Glycine]
Moisturizing effect on skin [1, 5]: Δ
Moisturizing effect [2]: Δ (40 or more and less than 50)
Moisture-absorption ability [4]: Δ (Amount of absorbed water per 1 g of keratin powder is 0.40 g or more and less than 0.50 g)

Cl.N[C@@H](Cc1cnc[nH]1)C(=O)O [Histidine hdrochloride]
Moisturizing effect on skin [1, 5]: Δ
Moisturizing effect [2]: Δ (40 or more and less than 50)
Moisture-absorption ability [4]: Δ (Amount of absorbed water per 1 g of keratin powder is 0.40 g or more and less than 0.50 g)

CC(C)C[C@H](N)C(=O)O [Leucine]
change in vivo at 5 % [1, 5]: < 3%
Formation of homogeneous solution of sample [3]: did not form homogeneous solution
Stability [3]: Δ

Cl.NCCCC[C@H](N)C(=O)O [Lysine hydrochloride]
Moisturizing effect on skin [1, 5]: Δ
Moisturizing effect [2]: Δ (40 or more and less than 50)
Stability [3]: Δ
Moisture-absorption ability [4]: Δ (Amount of absorbed water per 1 g of keratin powder is 0.40 g or more and less than 0.50 g)

N[C@@H](Cc1ccccc1)C(=O)O [Phenylalanine]
change in vivo at 5 % [1, 5]: < 3%
Moisturizing effect [2]: X (Less than 40)
Formation of homogeneous solution of sample [3]: did not form homogeneous solution
Stability [3]: Δ
Moisture-absorption ability [4]: X (Amount of absorbed water per 1 g of keratin powder is less than 0.40 g)

O=C(O)[C@@H]1CCCN1 [Proline]
Moisturizing effect on skin [1, 5]: Δ
Moisturizing effect [2]: ◯ (50 or more and less than 60)
Moisture-absorption ability [4]: ◯ (Amount of absorbed water per 1 g of keratin powder is 0.50 g or more and less than 0.60 g)

CNCC(=O)O [Sarcosine]
change in vivo at 5 % [1, 5]: < 3%
Moisturizing effect [2]: Δ (40 or more and less than 50)
Stability [3]: Δ
Moisture-absorption ability [4]: Δ (Amount of absorbed water per 1 g of keratin powder is 0.40 g or more and less than 0.50 g)

N[C@@H](CO)C(=O)O [Serine]
change in vivo at 5 % [1, 5]: < 3%
Moisturizing effect [2]: Δ (40 or more and less than 50)
Moisture-absorption ability [4]: Δ (Amount of absorbed water per 1 g of keratin powder is 0.40 g or more and less than 0.50 g)

N[C@@H](CC(=O)[O-])C(=O)[O-].O.[Na+].[Na+] [Sodium aspartate hydrate]
Moisturizing effect on skin [1, 5]: Δ
Moisturizing effect [2]: Δ (40 or more and less than 50)
Stability [3]: Δ
Moisture-absorption ability [4]: Δ (Amount of absorbed water per 1 g of keratin powder is 0.40 g or more and less than 0.50 g)

N[C@@H](CCC(=O)[O-])C(=O)[O-].O.[Na+].[Na+] [Sodium glutamate hydrate]
change in vivo at 5 % [1]: > 10%
Moisturizing effect [2]: Δ (40 or more and less than 50)
Stability [3]: Δ
Moisture-absorption ability [4]: Δ (Amount of absorbed water per 1 g of keratin powder is 0.40 g or more and less than 0.50 g)
